Assay results as given in patent publication US9618513B2, “Compositions and methods for detecting and treating colorectal cancer” (The Regents of the University of Michigan, priority 2014, dated 2017).
Entries after “also recorded” stand apart in the source; their conditions may differ.

Tests used:
Format in all cases: cell-based, human
H3K79me2 (DOT1L) = assay: Histone marks by western blot in colon cancer cells
Experimental: (§1) (A) IL-22 induces H3K79me2 in colon cancer cells. Colon cancer cells were treated with IL-22 for 48 hours. Total histone modifications were analyzed by western blot. (B, C) DOT1L inhibitor, EPZ004777 suppresses colon cancer sphere formation induced by IL-22. Colon cancer sphere assay was performed in the presence of IL-22 and EPZ004777. Sphere numbers were recorded. DLD-1 cells (B), primary colon cancer cells (C). (n=5, P<0.05). (D, E) IL-22 stimulates DOT1L complex gene expression. Colon cancer cells were cultured for 12 hours with IL-22. DOT1L complex gene expression was quantified by real-time PCR. DLD-1 cells (D), primary colon cancer cells (E). (n=3, P<0.05). (F) DOT1L knock down results in reduced colon cancer sphere formation induced by IL-22. Colon cancer sphere assay was performed with colon cancer cells expressing sh-DOT1L or vector in the presence of IL-22. Sphere numbers were recorded. (n=5, P<0.05). (G-I), IL-22 causes higher occupancy of H3K79me2 on core stem cell gene promoters. H3K79me2-ChIP assay was performed in DLD-1 colon cancer cells cultured with IL-22. One of 3 experiments is shown. […]
DLD1 and primary colon cancer cells (#2) were cultured with different concentrations of EPZ004777. Histone marks were detected by western blot. […]
Colon cancer cells were transfected with control vectors or the shDOT1L vector. Histone marks were detected by Western blot. […]

[1] = tested on: H3K79me2 on NANOG, SOX2, POU5F1 promoters; assay: H3K79me2-ChIP at core stem cell gene promoters
Experimental: as §1, with “shown. (J-L), DOT1L inhibitor, EPZ004777 results in reduced occupancy of H3K79 on core stem cell gene promoters induced by IL-22. H3K79me2 ChIP was performed in DLD-1 colon cancer cells cultured with or without IL-22 and EPZ004777. One of three experiments is shown.” for “shown.”

colon cancer cells = assay: Colon cancer cell proliferation (Ki67 FACS, H3 thymidine incorporation, cell counting)
Source text: A. GSEA analysis identifies proliferation pathways have positive correlation with IL-22. B. Cell proliferation maker Ki67 was detected by FACS. C. H^3 Thymidine Incorporation was used to detect the function of IL-22 in cell proliferation. D. Cell number was counted after stimulated with IL-22. E. Cells isolated from colon cancer tissue (Tumor cells and Leukocytes) were stimulated with a-CD3 and […] for 3 days, and supernatant mixed with or without anti-IL-22 antibody was co-cultured with DLD1 cells for 24 h to test cell proliferation. F. Cell cyclin-dependent kinase and kinase inhibitors were analyzed by Real-Time PCR.
A, C. Cell proliferation was analyzed using H^3 Thymidine Incorporation. B. The level of total H3K79m2 and H3K27me3 was measured by Western Blot. D. PcG proteins of EZH2, EED, SUZ12 was increased with IL-22(20 ng/ml) treatment. E. EZH2, SUZ12 and EED was detected by Western Blot after IL-22 treated for 24 h or 48 h. F. EZH2 inhibitor DZNep reduced cell proliferation. G.H. The efficiency of EZH2 and SUZ12 knock down was tested by Western Blot. I.J. Cell proliferation was analyzed using H^3 Thymidine Incorporation after knock down of EZH2 and SUZ12. K.L. Relative expression of cyclin-dependent kinase inhibitors (p16 and p18) in shEZH2, shSUZ12 and Dznep treated cells after IL-22 treatment. M. The level of H3K27me3 in the promoter of p16 and p18 was analyzed by ChIP assay.
A. The protein level of phosphorylated STAT3, STAT1 and STATS were activated by IL-22. B. The effect of STAT3 knock down. C. The effect of IL-22 on cell proliferation was analyzed using H^3 Thymidine Incorporation in Stat3 knock down cells. D. Knock down of STAT3 reduced the expression of EZH2 and SUZ12. E. Based on the ENCODE STAT3-ChIP-Seq data base, STAT3 occupancy on the promoter areas of SUZ12 and EED is shown. F. SUZ12/EED DNA was detected by ChIP assay using an antibody against STAT3, c-fos was used as a positive control.
Three primary colon cancer cell lines (SB, WR, JR) were established from fresh colon tissues. These primary colon cancer cells and DLD1 (ATCC) were studied. Colon cancer cells were treated with recombinant IL-22 (R&D) for different time points. The EZH2 inhibitor DZNep was added in conventional or sphere culture (see, e.g., Kryczek, I., et al., (2012) International journal of cancer 130, 29-39). Tumor cell sphere formation and gene expression were examined (see, e.g., Kryczek, I., et al., (2012) International journal of cancer 130, 29-39).

| Compound | H3K79me2 / H3K79 methylation (H3K79me2 (DOT1L); DLD1 and primary colon cancer cells (#2), different concentrations) | H3K79me2 binding in the stem cell gene promoter sites induced by IL-22 ([1]; DLD-1 with or without IL-22 and EPZ004777) | colon cancer cell proliferation induced by IL-22 (colon cancer cells; H3 thymidine incorporation) | dimethylation of histone 3 lysine 79 (H3K79me2), total (H3K79me2 (DOT1L); colon cancer cells, IL-22 48 hours) | H3K79me2 binding in proximal promoter areas of NANOG, SOX2, POU5F1 ([1]; DLD-1 cultured with IL-22) | expression of Ki-67 (colon cancer cells; FACS) | cell proliferation (colon cancer cells; H3 thymidine incorporation and cell number counting) |
| --- | --- | --- | --- | --- | --- | --- | --- |
| CC(C)N(CCCNC(=O)Nc1ccc(C(C)(C)C)cc1)C[C@H]1O[C@@H](n2ccc3c(N)ncnc32)[C@H](O)[C@@H]1O [EPZ004777] | reduced; also recorded: specifically inhibits | reduced | no influence |  |  |  |  |
| IL-22: recombinant IL-22 (R&D systems), cytokine interleukin-22 |  |  |  | selectively increased | increase | increased | increased |
